One block for each molecule: values may come before it.
Legend:
[1] = molecular target: T1, Solute carrier organic anion transporter family member 1A4 (Rattus norvegicus, UniProt O35913); assay: TP_TRANSPORTER: inhibition of Pravastatin uptake (Pravastatin: 30 uM, E217betaG: 300 uM) in Xenopus laevis oocytes; format: functional, cell-based; conditions: oocyte
T1 sequence (O35913 whole entry): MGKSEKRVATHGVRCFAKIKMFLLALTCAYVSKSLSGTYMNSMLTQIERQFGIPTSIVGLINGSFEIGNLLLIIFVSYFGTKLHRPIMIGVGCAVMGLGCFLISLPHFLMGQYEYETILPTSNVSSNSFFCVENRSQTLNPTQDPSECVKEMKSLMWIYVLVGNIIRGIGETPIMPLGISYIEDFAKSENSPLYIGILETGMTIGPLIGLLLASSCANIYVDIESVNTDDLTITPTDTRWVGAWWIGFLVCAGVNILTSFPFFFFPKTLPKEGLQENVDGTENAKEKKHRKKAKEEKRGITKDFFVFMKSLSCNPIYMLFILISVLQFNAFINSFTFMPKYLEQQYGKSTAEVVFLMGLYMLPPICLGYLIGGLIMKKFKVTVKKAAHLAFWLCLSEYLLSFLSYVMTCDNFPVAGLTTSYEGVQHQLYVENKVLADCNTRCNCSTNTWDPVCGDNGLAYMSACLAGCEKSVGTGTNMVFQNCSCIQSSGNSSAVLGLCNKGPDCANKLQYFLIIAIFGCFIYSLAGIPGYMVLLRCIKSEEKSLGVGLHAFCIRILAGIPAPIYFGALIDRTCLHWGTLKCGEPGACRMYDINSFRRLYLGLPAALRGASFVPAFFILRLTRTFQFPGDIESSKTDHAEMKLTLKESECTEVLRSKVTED

[2] = molecular target: T1, Solute carrier organic anion transporter family member 1A4; assay: TP_TRANSPORTER: inhibition of Pravastatin uptake (Pravastatin: 30 uM, Simvastatin: 300 uM) in Xenopus laevis oocytes; format: functional, cell-based; conditions: oocyte
[3] = molecular target: T1, Solute carrier organic anion transporter family member 1A4; assay: TP_TRANSPORTER: inhibition of Pravastatin uptake (Pravastatin: 30 uM, BSP: 300 uM) in Xenopus laevis oocytes; format: functional, cell-based; conditions: oocyte
[4] = substrate: CC[C@H](C)C(=O)O[C@H]1C[C@H](O)C=C2C=C[C@H](C)[C@H](CC[C@@H](O)C[C@@H](O)CC(=O)O)[C@H]21; assay: TP_TRANSPORTER: uptake in Xenopus laevis oocytes; format: functional, cell-based, Oocyte

Molecule: C[C@]12CC[C@@H]3c4ccc(O)cc4CC[C@H]3[C@@H]1CC[C@@H]2O[C@@H]1O[C@H](C(=O)O)[C@@H](O)[C@H](O)[C@H]1O [ESTRADIOL 17B GLUCURONIDE]
- Activity [1]: inhibitor [+]

- Activity [2]: inhibitor [+]
Molecule: CCC(C)(C)C(=O)O[C@H]1C[C@@H](C)C=C2C=C[C@H](C)[C@H](CC[C@@H]3C[C@@H](O)CC(=O)O3)[C@H]21 [SIMVASTATIN]

Molecule: O=C1OC(c2ccc(O)c(S(=O)(=O)[O-])c2)(c2ccc(O)c(S(=O)(=O)[O-])c2)c2c(Br)c(Br)c(Br)c(Br)c21.[Na+].[Na+] [SULFOBROMOPHTHALEIN SODIUM]
- Activity [3]: inhibitor [+]

B1: Solute carrier organic anion transporter family member 1A4 (Rattus norvegicus) (protein)
chain: T1 sequence (O35913 whole entry)
- Km [4]: 37.5 µM

Reference: ChEMBL document CHEMBL2074065, “Pravastatin, an HMG-CoA reductase inhibitor, is transported by rat organic anion transporting polypeptide, oatp2” (Pharm Res, 1999)
